Data on 14 molecules can be found in patent publication US5750733A, “Hydroxy containing alkyl glycamides, low foaming detergent compositions comprising such and a process for their manufacture” (Lever Brothers Company, Division of Conopco, Inc., priority 1996, dated 1998).

Molecules are shown by their SMILES. Where only a bound is given, the exact number is not on record here.

Series [1] in a line: Micellization and Surface Tension Reduction. The class given is physicochemical. The conditions noted are these: in water. The text has this:
The appearance and development of micelles are important since detergency (solubilization of soils) by dishwashing liquids, shampoos, detergents, etc., depend on the formation of these aggregates in solution.

A short description of series [2]: Krafft Point (Water Solubility Test). The following applies: for Krafft Point (0.1%): 0.1% dispersion in water by weight; for water solubility (in words): 0.1% in water, Krafft point test.
Method: The temperature at and above which surfactants begin to form micelles instead of precipitates is referred to as the Krafft point (Tk) and at this temperature the solubility of a surfactant becomes equal to its CMC (numerical value at which micelles are formed).
The Krafft point was measured by preparing 650 ml of a 0.1% dispersion of surfactant in water by weight. If the surfactant was soluble at room temperature, the solution was slowly cooled to 0° C. […] If it precipitated out of solution, the temperature at which precipitation occurs was taken as the Krafft point.
If the surfactant was insoluble at room temperature, the dispersion was slowly heated until the solution became homogeneous. It was then slowly cooled until precipitation occurred. The temperature at which the surfactant precipitates out of solution upon cooling was taken as the Krafft point.
Series [3] is described as follows: Ross-Miles Foam Height of Various Sugar Based Surfactants. The following applies: 0.1% surfactant, 50° C.; for Initial foam height / Final foam height (10 min.): 0 ppm hardness; for Final foam height (10 min.): after 10 minutes; for solubility in foam height test (in words): foam height cannot be measured if insoluble.
Method: Since most of the foaming data on surfactants is typically obtained by the Ross-Miles Foam Height Assay (Ross, J. and Miles, G. D. Am Soc. for Testing material Method D1173-63 Philadelphia, Pa. (1953); Oil & Soap (1958)62:1260) the foaming ability of these surfactants were acquired using this method.
In the Ross-Miles method, 200 mL of a surfactant solution contained in a pipette of specified dimensions with a 2.9 -mm-i.d. orifice is allowed to fall 90 cm onto 50 mL of the same solution contained in a cylindrical vessel maintained at a given temperature by means of a water jacket. The height of the foam produced in the cylindrical vessel is read immediately after all the solution has run out of the pipette and then again after a given amount of time.
Using this method, the foam production (initial foam height in mm) and foam stability (final foam height after 10 minutes as measured in mm) were measured at 0.1% sugar surfactant concentration, 50° C. and 0 ppm (parts per million) hardness.
Series [4] in a line: Foaming of a Prototype Detergent Formulation (Ross Miles Foam Height Method). The following applies: for Foam height of formulation, 5 min / Foam height of formulation, 10 min / Foam height of formulation, Initial: formulation with 4% of the compound, 0.4% formulation, 25° C., 18 FH. The format is physicochemical. The text has this:
A prototype detergent formulation comprising a hydroxy containing alkyl glycamide surfactant was made and tested to an identical formulation containing a non-hydroxy containing alkyl glycamide. The formulation is as follows: […]
C10 -C14 Linear Alkylbenzene Sulfonate
C12 -C15 Alcohol Ethoxylate Containing 7 Units of
Dodecyl 5-Hydroxy D-Glucamide (or Comparative)
Sodium Tripolyphosphate 30
Sodium Carboxymethyl Cellulose

Series [5] can be described thus: Clarity Enhancement of prototype detergent compositions with sodium lauryl sulfate. The format is physicochemical. The following applies: 3% compound with 15.0% sodium lauryl sulfate, room temperature; for Appearance: stored 6 months. The procedure: The prototype detergent composition is as follows:
Hydroxy Containing Alkyl
Glycamide (or Comparative)
Sodium Chloride 2.0% Viscosity Cobuilder
The above formulations were prepared by admixing the above ingredients in listed order and heating the mixture to about 80° C. with rapid stirring. The mixture was then cooled to about 40° C., placed in a clear jar and stored at room temperature for 6 months.

Another series deals with zein. The procedure: The zein solubilization assay was developed to determine the biological effects of surfactants on the skin. The protein is normally insoluble in water, but can be brought into solution by interaction with surfactants. The extent of zein dissolved is related to the irritation potential (M. J. Schwinger, Kolloid-Z.Z. Poly., 233, 848, 1969). The greater the zein solubilization, the greater the irritation potential of that surfactant on the skin.
Thus, a 1% solution of surfactant (30 mls) was added to 1.5 g of zein and stirred at room temperature for 1 hours. Residual zein was collected and dried to constant weight. Differences between starting and residual weight were used to calculate % zein solubilized.

For the molecule `CCCCCCCC(O)CCC(=O)NC[C@H](O)[C@@H](O)[C@H](O)[C@H](O)CO` (stereo partly drawn) [Undecyl 4-Hydroxy D-Glucamide, undecyl-4-hydroxy D-glucamide], the “Micellization and Surface Tension Reduction” value in series [1] is “Yes”. In addition, in series [2], the “Krafft Point (0.1%)” value was determined as 37 °C. In series [3], the Initial foam height came to 60 mm and the “Final foam height (10 min.)” value is listed as “Negligible”.
Consider `CCCCCCCCCCCC(=O)N(C)C[C@H](O)[C@@H](O)[C@H](O)[C@H](O)CO` [Dodecyl Methyl D-Glucamide, dodecyl methyl D-glucamide], for which the “Micellization and Surface Tension Reduction” value in series [1] is “Yes”. For the same molecule, in series [4], the “Foam height of formulation, 5 min” value is 110 mm; the “Foam height of formulation, 10 min” value amounted to 100 mm; the “Foam height of formulation, Initial” value is given as 135 mm. For the same molecule, the “Krafft Point (0.1%)” value in series [2] came to 45 °C. Further, in series [3], the Initial foam height was determined as 173 mm and the “Final foam height (10 min.)” value came to 157 mm.
For the molecule `CCCCCCCCCCCCCCCCNC(=O)[C@H](O)[C@@H](O)[C@H](O)[C@H](O)CO` [Hexadecyl D-Gluconamide], in series [1], the “Micellization and Surface Tension Reduction” value is reported as “No”. In series [2], the “Krafft Point (0.1%)” value is greater than 100 °C and the “water solubility (in words)” value is recorded as “Insoluble”. Besides, in series [3], the “solubility in foam height test (in words)” value is reported as “Insoluble”.
Turning to `CCCCCCCCCCCCCCNC(=O)[C@H](O)[C@@H](O)[C@H](O)[C@H](O)CO` [Tetradecyl D-Gluconamide], the “Micellization and Surface Tension Reduction” value in series [1] was “No”. In series [2], the “Krafft Point (0.1%)” value is greater than 100 °C and the “water solubility (in words)” value was “Insoluble”. Further, the “solubility in foam height test (in words)” value in series [3] is recorded as “Insoluble”.
For `CCCCCCCCCCCC(=O)NC[C@H](O)[C@@H](O)[C@H](O)[C@H](O)CO` [Dodecyl D-Glucamide, dodecyl D-glucamide], the “Micellization and Surface Tension Reduction” value in series [1] is “No”. For the same molecule, in series [5], the Time to precipitation was no more than 3 days and the Appearance result is listed as “Precipitate”. For the same molecule, the Time to precipitation in series [5] (listed as C12 D-Glucamide) is given as 3 days. For the same molecule, in series [2], the “Krafft Point (0.1%)” value is greater than 100 °C and the “water solubility (in words)” value was “Insoluble”. Further, in series [3], the “solubility in foam height test (in words)” value is “Insoluble”.
`CCCCCCCCCCCCCCCC(=O)NC[C@H](O)[C@@H](O)[C@H](O)[C@H](O)CO` [Hexadecyl D-Glucamide]: in series [1], the “Micellization and Surface Tension Reduction” value is “No”. Also, in series [2], the “Krafft Point (0.1%)” value was greater than 100 °C and the “water solubility (in words)” value was “Insoluble”. In series [3], the “solubility in foam height test (in words)” value was “Insoluble”.
As for `CCCCCCCCNC(=O)[C@H](O)[C@@H](O)[C@H](O)[C@H](O)CO` [Octyl D-Gluconamide], the “Micellization and Surface Tension Reduction” value in series [1] is listed as “Yes”. The “Krafft Point (0.1%)” value in series [2] stood at 12 °C. Further, in series [3], the Initial foam height was 0 mm and the “Final foam height (10 min.)” value is 0 mm.
In the case of `CCCCCCCCCCCCNC(=O)[C@@H](O)[C@H](O)[C@@H](O)[C@@H](O)CO` [Dodecyl L-Gluconamide], the “Micellization and Surface Tension Reduction” value in series [1] was “No”. In addition, in series [2], the “Krafft Point (0.1%)” value is greater than 100 °C and the “water solubility (in words)” value was “Insoluble”. Moreover, in series [3], the “solubility in foam height test (in words)” value is listed as “Insoluble”.
With `CCCCCCCCCCCCCC(=O)NC[C@H](O)[C@@H](O)[C@H](O)[C@H](O)CO` [Tetradecyl D-Glucamide], the “Micellization and Surface Tension Reduction” value in series [1] is “No”. In series [2], the “Krafft Point (0.1%)” value was greater than 100 °C and the “water solubility (in words)” value is listed as “Insoluble”. In addition, the “solubility in foam height test (in words)” value in series [3] is on record as “Insoluble”.
Take `CCCCCCCCCCNC(=O)[C@H](O)[C@@H](O)[C@H](O)[C@H](O)CO` [Decyl D-Gluconamide]: the “Micellization and Surface Tension Reduction” value in series [1] is given as “Yes”. The “Krafft Point (0.1%)” value in series [2] amounted to 75 °C. In addition, in series [3], the Initial foam height came to 199 mm and the “Final foam height (10 min.)” value turned out to be 6 mm.
As for `CCCCCCCCCCCCNC(=O)[C@H](O)[C@@H](O)[C@H](O)[C@H](O)CO` [Dodecyl D-Gluconamide], the “Micellization and Surface Tension Reduction” value in series [1] is listed as “No”. In addition, in series [2], the “Krafft Point (0.1%)” value is greater than 100 °C and the “water solubility (in words)” value is listed as “Insoluble”. For the same molecule, the “solubility in foam height test (in words)” value in series [3] is reported as “Insoluble”.
As for `CN(C[C@H](O)[C@@H](O)[C@H](O[C@H]1O[C@H](CO)[C@@H](O)[C@H](O)[C@H]1O)[C@H](O)CO)C(=O)CCCCCCCCCCCO` [Dodecyl 12-Hydroxy Methyl D-Maltamide, dodecyl 12-hydroxy methyl D-maltamide], the “Micellization and Surface Tension Reduction” value in series [1] is reported as “Yes”. The “Krafft Point (0.1%)” value in series [2] was less than 21 °C. For the same molecule, in series [3], the Initial foam height is on record as 57 mm and the “Final foam height (10 min.)” value was “Negligible”.
Take `CCCCCCCC(O)CCCC(=O)NC[C@H](O)[C@@H](O)[C@H](O)[C@H](O)CO` (stereo partly drawn) [Dodecyl 5-Hydroxy D-Glucamide, dodecyl 5-hydroxy D-glucamide]: the “Micellization and Surface Tension Reduction” value in series [1] was “Yes”. Besides, in series [4] (compared to identical formulation with dodecyl methyl D-glucamide), the “foaming of formulation (in words)” value was “low foaming compared to identical formulations containing dodecyl methyl D-glucamide”. Further, in series [4], the “Foam height of formulation, 5 min” value is given as 94 mm; the “Foam height of formulation, 10 min” value is given as 75 mm; the “Foam height of formulation, Initial” value is 125 mm. The Appearance entry in series [5] (listed as C12 5-Hydroxy D-Glucamide) is “Clear”. Further, the Appearance entry in series [5] (listed as dodecyl 5-hydroxy glucamide) is reported as “stay in solution”. In the series with zein, the “% Zein Solubilized” value was 7% and the “mildness / zein solubilization (in words)” value is recorded as “less zein solubilization”. In addition, the “Krafft Point (0.1%)” value in series [2] is 41 °C. In addition, in series [3], the Initial foam height was found to be 67 mm and the “Final foam height (10 min.)” value is recorded as “Negligible”.
For the molecule `CCCCCCCCCCCCCCCCCC(=O)NC[C@H](O)[C@@H](O)[C@H](O)[C@H](O)CO` [Octadecyl D-Glucamide], in series [1], the “Micellization and Surface Tension Reduction” value is recorded as “No”. In series [2], the “Krafft Point (0.1%)” value is greater than 100 °C and the “water solubility (in words)” value is on record as “Insoluble”. For the same molecule, the “solubility in foam height test (in words)” value in series [3] is “Insoluble”.
